The nature of data set [1]: Plasma concentration determination test after oral administration. It counts as in vivo. The note with it: male beagle dogs, gelatin capsule, 20 mg/kg in terms of free form, hypochlorhydria conditions, three dogs. The protocol:
The Compound (1) in free form (type II crystal), the type III crystal of Compound (1) with one equivalent of succinic acid, and the type I crystal of Compound (1) with one equivalent of sorbic acid obtained in the examples were tested for plasma concentrations in male beagle dogs after oral administration under hypochlorhydria conditions.
In order to select three male beagle dogs for the test, plasma concentrations were determined in five male beagle dogs under hypochlorhydria conditions after administration in a solution form and administration in a capsule-filled form. Three dogs with larger differences in AUClast (area under the plasma concentration-time curve from 0 hours after administration to the point at which the final concentration can be calculated by the linear trapezoidal method before Tmax and by the log-trapezoidal method after Tmax) and Cmax (maximum plasma concentration) between the administration in the solution form and the administration in the capsule-filled form were selected. Subsequently, tests were conducted to determine plasma concentrations in them after oral administration of the Compound (1) in free form (type II crystal), the type III crystal of Compound (1) with one equivalent of succinic acid, and the type I crystal of Compound (1) with one equivalent of sorbic acid in capsule-filled forms. The following procedures were employed for the preparation of a liquid dosage, capsule filling, and animal experiments.
Compound (1) in free form was dissolved in a 20% HP-β-CD solution containing 0.1N hydrochloric acid to prepare a solution of 20 mg/5 mL. Compound (1) in free form (type II crystal), the type III crystal of Compound (1) with one equivalent of succinic acid, and the type I crystal of Compound (1) with one equivalent of sorbic acid were each filled into a gelatin capsule at 20 mg/kg in terms of the molecular weight of Compound (1) (free form).
The male beagle dogs selected for the study were fasted starting between 11:00 a.m. to 12:00 p.m. on the day before Compound (1) was administered and fed after blood was collected 8 hours after the administration of the compound. The dogs were not allowed to drink water from 30 minutes before to 2 hours after the administration of the compound, but were allowed to drink freely at other time.
Intravenous administration of atropine (atropine sulfate injection 0.5 mg “Fuso”) at a dose of 0.02 mg/kg was followed by intramuscular administration of pentagastrin at a dose of 0.01 mg/kg 30 minutes prior to the administration of the compound. Thirty minutes after the administration of atropine, the dogs were orally force-fed a capsule filled with the compound, encouraged to self-swallow the capsule with 5 mL of distilled water, and further orally force-fed 50 mL of distilled water using a catheter. Alternatively, the compound dissolved in liquid dosage was administered orally via a catheter at a dose of 20 mg/5 mL/kg, and the catheter was immediately rinsed with 10 mL of distilled water.
Pentagastrin was again intramuscularly administered at 0.01 mg/kg 15 minutes and 1 hour after the administration of the compound.
Before and after (0.25, 0.5, 1, 2, 4, 6, 8, and 24 hours after) the administration, the person in charge of collecting blood held the dog's forelimb to distend the blood vessel using a clothespin or the like. Then, the blood collection site was disinfected with alcohol cotton, and about 0.2 mL of blood was collected using a heparinized syringe and needle. After the blood was drawn, the puncture site was pressed with a cotton pad to adequately stop bleeding. The collected blood samples were ice-cooled, and plasma was isolated by centrifugation as soon as possible. The isolated plasma was immediately frozen on dry ice and then stored frozen in a freezer set at −80° C. […]

Data set [2] can be described thus: Dynamic vapor sorption (DVS) test. It counts as physicochemical. As to conditions: 25° C.; for Hygroscopicity (result in words): 5 to 95% RH; for Weight increase under 95% relative humidity: 95% RH. The procedure: Vapor sorption tests were performed using the type II crystal of Compound (1) in free form, the type III crystal of Compound (1) in free form, the type VII crystal of Compound (1) in free form, and the type VIII crystal of Compound (1) in free form obtained in the examples, reference example, and comparative example.
Vapor sorption tests were conducted under the following conditions.
Approximately 10 mg of the sample was filled into a specialized quartz holder to continuously measure and record the weight of the sample at each humidity was under the following conditions. The instrument, including data processing, was handled in accordance with the method and procedure indicated for each instrument. • Instrument: VTI-SA+(manufactured by TA Instruments) • Drying temperature: 60° C. • Heating rate: 1° C./min • Equilibration of drying: Confirmation of no more than 0.01 wt % decrease in 5 minutes within a period not exceeding 300 minutes • Measurement temperature: 25° C. • Equilibration of humidification: Confirmation of no more than 0.01 wt % increase in 5 minutes within a period not exceeding 120 minutes • Relative humidity program: Increase from 5 to 95% RH in increments of 5% RH, and decrease from 95% to 5% RH in increments of 5% RH. • Changes in the weight over the range of the measurement conditions obtained in these tests are shown in FIGS. 9 through 12.
Vapor sorption tests were performed using the type III crystal of Compound (1) with succinic acid, the type I crystal of Compound (1) with citric acid, the type IV crystal of Compound (1) with citric acid, the type I crystal of Compound (1) with sorbic acid, and the type I crystal of Compound (1) with phosphoric acid obtained in the examples, reference example, and comparative examples.
Vapor sorption tests were conducted under the same conditions as in Test Example 2.

A short description of data set [3]: Solid stability test (4 weeks of storage at 80° C., closed system; HPLC). It counts as physicochemical. The note with it: for Chemical purity after 4 weeks of storage at 80° C. / Solid stability (result in words): 80° C. (closed system), 4 weeks; for Chemical purity after 4 weeks of storage at 80° C.: glass bottle; for Chemical purity after 4 weeks of storage at 80° C. / Chemical purity before storage: HPLC; for Solid stability (result in words): related substances by HPLC; for Change (chemical purity): after 4 weeks at 80° C. versus before storage; for Chemical purity before storage: UV 220. The protocol: The solid stability of the type II crystal of Compound (1) in free form, the type III crystal of Compound (1) in free form, the type VII crystal of Compound (1) in free form, and the type VIII crystal of Compound (1) in free form obtained in the examples, reference example, and comparative example were evaluated after 4 weeks of storage by the following procedure. • Storage conditions: 80° C. (closed system) (HIFLEX (high-temperature storage chamber manufactured by ETAC)) • Storage period: 4 weeks • Storage volume: Approximately 30 mg • Storage container: Glass bottle
Changes in the mass of the related substances (the amounts of detected substances other than Compound (1)) were analyzed by HPLC according to the following method. Approximately 8 mg of each sample was weighed and dissolved in I mL of a chloroform-methanol mixture (1:1 v/v). Fifty μL of this solution was measured and diluted with 950 μL of an acetonitrile-water mixture (7:3), and 5 μL of the resulting solution was accurately measured and used as the sample for the analysis.
The mass of the related substances in the sample solution was determined by HPLC analysis. The instrument, including data processing, was handled in accordance with the method and procedure indicated for each instrument. • Column: InertSustainSwift C18 (2.1×50 mm, 1.9 μm) manufactured by GL Sciences • UV detection: […] • Column temperature: 40° C. • Flow rate: 0.3 mL/min • Sample cooler: 10° C. • Sample concentration: 0.1 mg/mL • Mobile phase A: 10 mmol/L phosphate buffer (pH 6.8)/acetonitrile (95:5) mixture • Mobile phase B: Acetonitrile • The gradients are shown in Table 4.
The solid stability of the type III crystal of Compound (1) with succinic acid, the type I crystal of Compound (1) with citric acid, the type IV crystal of Compound (1) with citric acid, the type I crystal of Compound (1) with sorbic acid, and the type I crystal of Compound (1) with phosphoric acid obtained in the examples, reference example, and comparative examples were evaluated after 4 weeks of storage. The evaluation method, storage, and measurement conditions were as described in Test Example 1.

Setting [4] is: male, beagle, dog, plasma, po, 20 mg/kg.

Like-named read-outs stand apart in the source and are kept apart here.

Three compounds from patent publication US20250276973A1, “CRYSTAL OF 7H-PYRROLO[2,3-D]PYRIMIDINE-4-AMINE DERIVATIVE” (TAIHO PHARMACEUTICAL CO., LTD., priority 2022, published 2025) can be followed below.

In general, AUC(0-t) refers to exposure summed from dosing to a finite time, without extrapolation to infinity. Low readings indicate less exposure, high ones more exposure. In general, Cmax refers to the peak of the concentration-time curve. In data set [1] (setting [4]), `C#Cc1c(-c2cnc3ccccc3c2)c2c(N)ncnc2n1C12CCC(NC(=O)c3cnc(C)cn3)(CC1)C2` [N-(4-(4-amino-6-ethynyl-5-(quinolin-3-yl)-7H-pyrrolo[2,3-d]pyrimidin-7-yl)bicyclo[2.2.1]heptan-1-yl)-5-methylpyrazine-2-carboxamide] yielded an AUC(0-t) of 13 ± 4 µM·h and a Cmax of 1260 ± 90 nM. In data set [1] (male, beagle, dog, plasma, po, 20 mg/kg, read-out: tmax), the tmax is 4 h.

For the compound `C#Cc1c(-c2cnc3ccccc3c2)c2c(N)ncnc2n1C12CCC(NC(=O)c3cnc(C)cn3)(CC1)C2` [Type I crystal of Compound (1) with sorbic acid] [N-(4-(4-amino-6-ethynyl-5-(quinolin-3-yl)-7H-pyrrolo[2,3-d]pyrimidin-7-yl)bicyclo[2.2.1]heptan-1-yl)-5-methylpyrazine-2-carboxamide], in data set [2], the “Hygroscopicity (result in words)” value was “hardly hygroscopic” and the “Weight increase under 95% relative humidity” value worked out at 0.26%. In addition, in data set [3], the “Chemical purity after 4 weeks of storage at 80° C.” value is listed as 99.72%, the “Solid stability (result in words)” value is given as “extremely stable crystals with almost no increase in the related substances”, the “Change (chemical purity)” value is −0.02% and the “Chemical purity before storage” value is reported as 99.74%. In data set [1], this compound gave an AUClast of 18.1 ± 13.1 µM·h, a Cmax of 1680 ± 880 nM and a tmax of 6.0 ± 2.0 h.

As to `C#Cc1c(-c2cnc3ccccc3c2)c2c(N)ncnc2n1C12CCC(NC(=O)c3cnc(C)cn3)(CC1)C2` [Type III crystal of Compound (1) with succinic acid] [N-(4-(4-amino-6-ethynyl-5-(quinolin-3-yl)-7H-pyrrolo[2,3-d]pyrimidin-7-yl)bicyclo[2.2.1]heptan-1-yl)-5-methylpyrazine-2-carboxamide], in data set [2], the “Hygroscopicity (result in words)” value is “hardly hygroscopic” and the “Weight increase under 95% relative humidity” value was 0.28%. Besides, in data set [3], the “Chemical purity after 4 weeks of storage at 80° C.” value worked out at 99.63%, the “Solid stability (result in words)” value was “extremely stable crystals with almost no increase in the related substances”, the “Change (chemical purity)” value was “+0.01%” and the “Chemical purity before storage” value was 99.62%. Besides, in data set [1], the AUClast turned out to be 25.1 ± 8.4 µM·h, the Cmax amounted to 2240 ± 750 nM and the tmax turned out to be 5.3 ± 1.2 h.
